Source: patent publication US20250249113A1, “LIGAND-DRUG-CONJUGATES WITH IMPROVED PHARMACOKINETIC AND DRUG RELEASE PROPERTIES” (Debiopharm Research & Manufacturing S.A., priority 2022, published 2025)
Where a SMILES comes first, the peptide text is derived from it. Side-chain parts run from the residue outwards. [ ]: non-standard residue; d: D form. The star is where a group is joined. DM1Mal(CH2)2CO = COc1cc2cc(c1Cl)N(C)C(=O)C[C@H](OC(=O)[C@H](C)N(C)C(=O)CCSC1CC(=O)N(CCC(=O)*)C1=O)[C@]1(C)O[C@H]1[C@H](C)[C@@H]1C[C@@](O)(NC(=O)O1)[C@H](OC)/C=C/C=C(\C)C2; X1 = CC(=O)N[C@@H](CSC1CC(=O)N(CCC(=O)*)C1=O)C(=O)O; Dolaproine = CO[C@@H]([C@@H]1CCCN1)[C@@H](C)C(=O)O; Dil = CC[C@H](C)[C@H](NC)[C@@H](CC(=O)O)OC; NMe2Val = CC(C)[C@@H](C(=O)*)N(C)C; PEG5 = NCCOCCOCCOCCOCCOCCC(=O)O; Cit = NC(=O)NCCC[C@H](N)C(=O)O; PEG4 = NCCOCCOCCOCCOCCC(=O)O

Columns and labels:
[1] = DRF toxicity study of DM1-Ac-Cit and DM1-Ac-Cit-Lys(Cys-ma-Lys(PEG16))-Tyr-OH, 2 intravenous bolus injections (Day 1 and Day 8), female mice; format: in vivo, mouse; settings: for related mortalities, clinical observations or effects on body weights and food consumption / related ophthalmic findings or changes in clinical pathology parameters / related organ weight changes, macroscopic and microscopic findings: DM1-Ac-Cit 0.15, 0.68 or 1.4 mg/kg/adm, DM1-Ac-Cit-Lys(Cys-ma-Lys(PEG16))-Tyr-OH 3.5 mg/kg/adm, 2 i.v. injections
Experimental: The objectives of this study were to determine the potential toxicity of Multilink-DM1-Ac-Cit and DM1-Ac-Cit-Lys(Cys-ma-Lys(PEG16))-Tyr-OH when administered intravenously (via bolus injection).
2 injections of the same dose of either DM1-Ac-Cit ((test item 1) at 0.15, 0.68 or 1.4 mg/kg/adm) or 2 injections of the same dose of DM1-Ac-Cit-Lys(Cys-ma-Lys(PEG16))-Tyr-OH ((test item 2) at 3.5 mg/kg/adm were administered separately (on Day 1 and Day 8 (7-day interval) to CD-1® IGS mice, and the reversibility and/or delayed occurrence of any findings were evaluated during a 10-day observation period. In addition, the toxicokinetic characteristics of DM1-Ac-Cit-Lys(Cys-ma-Lys(PEG16))-Tyr-OH, DM1-Ac-Cit, and the catabolite DM1 were determined.
A control group received the Vehicle Control 1: 8% Ethanol/8% Polysorbate (Tween*) 80/PBS 84%.
The study design was as follows:
The following parameters and end points were evaluated in this study: mortality, clinical observations, body weights, food consumption, ophthalmology, clinical pathology parameters (hematology and clinical chemistry), toxicokinetic parameters, organ weights, and macroscopic and microscopic examinations.

Cathepsin B = biological target: T1, Cathepsin B (Homo sapiens, UniProt P07858); test: Cat B-induced cleavage study (in vitro enzymatic cleavage assay, UHPLC-MS/MS); format: biochemical; settings: for half-life at 10 μM: human, recombinant human Cathepsin B, 10 μM compound, Cathepsin B 2 μg/mL, 25 mM MES buffer pH 5.0, 37° C., read-out: T1/2 Compound; for Ratio (T1/2 Compound/T1/2 Reference): reference: Cys-MC-Val-Cit-PABC-MMAF
T1 construct: purchased R&D Systems, Bio-Techne AG 953-CY-010
Experimental: (§1) The propensity of compounds 1-13 to be cleaved by Cathepsin B—was evaluated according to an in vitro enzymatic cleavage assay using recombinant human Cathepsin B and UHPLC-MS/MS analysis as described below.
(§2) Reference compounds Cys-MC-Val-Cit-PABC-MMAF and MMAF were used as positive controls. The enzyme was reconstituted in 25 mM MES buffer adjusted at pH 5.0 with a 1M NaOH solution and then activated with a […] solution of DDT at room temperature for at least 15 min.
(§3) The in vitro enzymatic assay was conducted at 37° C. with the test compounds at a concentration of 10 μM (2.5 μM when the test compound is an antibody-drug conjugate) in the presence of activated recombinant human Cathepsin B enzyme at 2 μg/mL in a 25 mM MES buffer pH 5.0. The enzymatic cleavage reaction was stopped for each defined time point by mixing an equal volume of acetonitrile+0.1% FA containing an internal standard (warfarine at 8 μM).
(§4) Analysis was conducted using a Waters Acquity UPLC System coupled to a Waters Xevo TQ triple quad mass spectrometer. UHPLC was conducted depending on the test compounds with a BEH C8 1.7 μm 100×2.1 mm or BEH C18 1.7 μm 50×2.1 mm or HSS T3 1.7 μm 50×2.1 mm columns heated at 45° C. or 50° C. and fitted with 2 μm insert filter pre-columns (available from Waters), and solvent systems A1 (H2O+0.1% FA) and B1 (acetonitrile+0.1% FA) at a flow rate of 0.6 mL/min and a 10-95% gradient of B1 over 1.9 min.
(§5) MS/MS was performed using electrospray ionization (ESI) interface in positive mode and specific MRM transitions for each tested compound.

[2] = biological target: T2, Cathepsin B (exo-Cat B cleavage) (Homo sapiens, UniProt P07858); test: as above; format: biochemical; settings: human, recombinant human Cathepsin B, pH 5; read-out: T1/2 (cleavage by exo-Cat B)
T2 construct: purchased R&D Systems, Bio-Techne AG 953-CY-010
Experimental: as §1, §2, §3, §4, §5

Row | Compound | half-life at 10 μM (Cathepsin B) [s] | Ratio (T1/2 Compound/T1/2 Reference) (Cathepsin B) | further results
1 | DM1-Ac-Cit-Lys(Cys-ma-Lys(PEG16))-Tyr-OH |  |  | tolerability ([1]; 2 i.v. bolus injections at 7-day interval at 3.5 mg/kg/adm): well tolerated; related mortalities, clinical observations or effects on body weights and food consumption [1]: no; related ophthalmic findings or changes in clinical pathology parameters [1]: no; related organ weight changes, macroscopic and microscopic findings [1]: no macroscopic and microscopic findings
2 | COc1cc2cc(c1Cl)N(C)C(=O)C[C@H](OC(=O)[C@H](C)N(C)C(=O)CCSC1CC(=O)N(CCC(=O)N[C@@H](Cc3ccccc3)C(=O)N[C@@H](CCCNC(N)=O)C(=O)N[C@@H](Cc3ccccc3)C(=O)N[C@@H](CCCCNC(=O)CCOCCOCCOCCOCCNC(=O)CCN3C(=O)CC(SC[C@H](NC(C)=O)C(=O)O)C3=O)C(=O)O)C1=O)[C@]1(C)O[C@H]1[C@H](C)[C@@H]1C[C@@](O)(NC(=O)O1)[C@H](OC)/C=C/C=C(\C)C2 (stereo partly drawn) [Compound 7, DM1-Mal-Phe-Cit-Phe-Lys(PEG4-Mal-Cys-Ac)-OH] ({DM1Mal(CH2)2CO}-F[Cit]FK([PEG4-X1])-OH; N-terminus assumed) | 72 | 0.09 | 
3 | CC[C@H](C)[C@@H]([C@@H](CC(=O)N1CCC[C@H]1[C@H](OC)[C@@H](C)C(=O)N[C@@H](Cc1ccccc1)C(=O)N[C@@H](CCCNC(N)=O)C(=O)N[C@@H](CCCCNC(=O)CCOCCOCCOCCOCCNC(=O)CCN1C(=O)CC(SC[C@H](NC(C)=O)C(=O)O)C1=O)C(=O)N[C@@H](Cc1ccccc1)C(=O)O)OC)N(C)C(=O)[C@@H](NC(=O)[C@H](C(C)C)N(C)C)C(C)C (stereo partly drawn) [Compound 8, AF-Cit-Lys(PEG4-Mal-Cys-Ac)-Phe-OH] (NMe2Val-V[Dil][Dolaproine]F[Cit]K([PEG4-X1])F-OH; N-terminus assumed) |  | 0.09 | 
4 | CC[C@H](C)[C@@H]([C@@H](CC(=O)N1CCC[C@H]1[C@H](OC)[C@@H](C)C(=O)N[C@@H](Cc1ccccc1)C(=O)N[C@@H](CCCNC(=N)N)C(=O)N[C@@H](Cc1ccccc1)C(=O)N[C@@H](CCCCNC(=O)CCOCCOCCOCCOCCNC(=O)CCN1C(=O)CC(SC[C@H](NC(C)=O)C(=O)O)C1=O)C(=O)O)OC)N(C)C(=O)[C@@H](NC(=O)[C@H](C(C)C)N(C)C)C(C)C (stereo partly drawn) [Compound 3, AF-Arg-Phe-Lys(PEG4-Mal-Cys-Ac)-OH] (NMe2Val-V[Dil][Dolaproine]FRFK([PEG4-X1])-OH; N-terminus assumed) |  | 0.11 | 
5 | COc1cc2cc(c1Cl)N(C)C(=O)C[C@H](OC(=O)[C@H](C)N(C)C(=O)CCSC1CC(=O)N(CCC(=O)N[C@@H](Cc3ccccc3)C(=O)N[C@@H](CCCNC(N)=O)C(=O)N[C@@H](CCCCNC(=O)CCOCCOCCOCCOCCNC(=O)CCN3C(=O)CC(SC[C@H](NC(C)=O)C(=O)O)C3=O)C(=O)N[C@@H](Cc3ccccc3)C(=O)O)C1=O)[C@]1(C)O[C@H]1[C@H](C)[C@@H]1C[C@@](O)(NC(=O)O1)[C@H](OC)/C=C/C=C(\C)C2 (stereo partly drawn) [Compound 6, DM1-Mal-Phe-Cit-Lys(PEG4-Mal-Cys-Ac)-Phe-OH] ({DM1Mal(CH2)2CO}-F[Cit]K([PEG4-X1])F-OH; N-terminus assumed) | 18 | 0.02 | 
6 | COc1cc2cc(c1Cl)N(C)C(=O)C[C@H](OC(=O)[C@H](C)N(C)C(=O)CCSC1CC(=O)N(CCC(=O)N[C@@H](Cc3ccccc3)C(=O)N[C@@H](CCCCN)C(=O)N[C@@H](CCCCNC(=O)CCOCCOCCOCCOCCNC(=O)CCN3C(=O)CC(SC[C@H](NC(C)=O)C(=O)O)C3=O)C(=O)N[C@@H](Cc3ccccc3)C(=O)O)C1=O)[C@]1(C)O[C@H]1[C@H](C)[C@@H]1C[C@@](O)(NC(=O)O1)[C@H](OC)/C=C/C=C(\C)C2 (stereo partly drawn) [Compound 5, DM1-Mal-Phe-Lys-Lys(PEG4-Mal-Cys-Ac)-Phe-OH] ({DM1Mal(CH2)2CO}-FKK([PEG4-X1])F-OH; N-terminus assumed) | 36 | 0.05 | Cat B-induced drug release, faster as compared to reference Cys-MC-Val-Cit-PABC-MMAF (Cathepsin B): 20 times
7 | DM1-Ac-Cit |  |  | tolerability ([1]; 2 i.v. bolus injections at 7-day interval at 0.15, 0.68, and 1.4 mg/kg/adm, female CD-1 mice): well tolerated; related mortalities, clinical observations or effects on body weights and food consumption [1]: no; related ophthalmic findings or changes in clinical pathology parameters [1]: no; related organ weight changes, macroscopic and microscopic findings [1]: no macroscopic and microscopic findings; no observed adverse effect level (NOAEL) ([1]; DM1-Ac-Cit, 2 i.v. bolus injections at 7-day interval, female CD-1 mice): 1.4 mg/kg/adm
8 | COc1cc2cc(c1Cl)N(C)C(=O)C[C@H](OC(=O)[C@H](C)N(C)C(=O)CCSC1CC(=O)N(CC3CCC(C(=O)N[C@@H](Cc4ccccc4)C(=O)N[C@@H](CCCNC(N)=O)C(=O)N[C@@H](CCCCNC(=O)CCOCCOCCOCCOCCOCCNC(=O)CN4C(=O)CC(SC[C@H](NC(C)=O)C(=O)O)C4=O)C(=O)N[C@@H](Cc4ccc(O)cc4)C(=O)O)CC3)C1=O)[C@]1(C)O[C@H]1[C@H](C)[C@@H]1C[C@@](O)(NC(=O)O1)[C@H](OC)/C=C/C=C(\C)C2 (stereo partly drawn) [Compound 11, DM1-Mcc-Phe-Cit-Lys(PEG5-Ma-Cys-Ac)-Tyr-OH] | 3.6 | 0.005 | half-life [2]: ≤ 60 s
9 | COc1cc2cc(c1Cl)N(C)C(=O)C[C@H](OC(=O)[C@H](C)N(C)C(=O)CCSC1CC(=O)N(CC3CCC(C(=O)N[C@@H](CCCNC(N)=O)C(=O)N[C@@H](CCCCNC(=O)CCOCCOCCOCCOCCOCCNC(=O)CN4C(=O)CC(SC[C@H](NC(C)=O)C(=O)O)C4=O)C(=O)N[C@@H](Cc4ccc(O)cc4)C(=O)O)CC3)C1=O)[C@]1(C)O[C@H]1[C@H](C)[C@@H]1C[C@@](O)(NC(=O)O1)[C@H](OC)/C=C/C=C(\C)C2 (stereo partly drawn) [Compound 12, DM1-Mcc-Cit-Lys(PEG5-Ma-Cys-Ac)-Tyr-OH] |  | 0.00004 | half-life [2]: ≤ 60 s
10 | CC[C@H](C)[C@@H]([C@@H](CC(=O)N1CCC[C@H]1[C@H](OC)[C@@H](C)C(=O)N[C@@H](Cc1ccccc1)C(=O)N[C@@H](CCCNC(=N)N)C(=O)N[C@@H](CCCCNC(=O)CCOCCOCCOCCOCCOCCNC(=O)CCN1C(=O)CC(SC[C@H](NC(C)=O)C(=O)O)C1=O)C(=O)N[C@@H](Cc1ccccc1)C(=O)O)OC)N(C)C(=O)[C@@H](NC(=O)[C@H](C(C)C)N(C)C)C(C)C (stereo partly drawn) [Compound 1, AF-Arg-Lys(PEG4-Mal-Cys-Ac)-Phe-OH] (NMe2Val-V[Dil][Dolaproine]FRK([PEG5-X1])F-OH; N-terminus assumed) |  | 0.12 | 
